Source: patent US20260035339A1, “TETRAHYDRONAPHTHALENE DERIVATIVE” (ATRANSEN PHARMA LTD., priority 2022, published 2026)

Experiments:
[1] = tested on: Mouse colorectal cancer-derived CT26 cells; experiment: Cell proliferation inhibitory effect using mouse colorectal cancer cells (CCK-8 assay); assay type: cell-based; conditions: 72 hours compound treatment, read-out: Evaluation of IC50 (proliferation inhibition rate of 50%)
Outline: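 Cells seeded at 1000 per well in RPMI 1640 with 10% FBS; after 24 h medium replaced with compound at 0.01-30 μM. Viable cells counted by CCK-8 after 72 h of treatment, and IC50 taken as the concentration giving 50% proliferation inhibition relative to untreated control.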

[2] = tested on: Human breast cancer cells MCF7; experiment: BNCT-enhancing effect by L-BPA confinement using cultured cells (colony formation after neutron irradiation); assay type: cell-based; conditions: MCF7 loaded with 100 μM L-[10B]BPA, then 10 μM compound for 60 minutes; neutron rays 5 MW for 4 minutes
Method: Human breast cancer cells MCF7 were plate-cultured in an RPMI medium for 48 hours, then replaced with an RPMI medium containing 100 μM of L-[10B]BPA, and cultured for 15 minutes to allow the L-[10B]BPA to be taken up in the cells. After washing with HBSS, the cells were cultured in an RPMI medium for 60 minutes, and after further washing with HBSS, the cells were peeled off and stored in HBSS at room temperature for 1.5 hours ((−) in FIG. 3A). L-BPA was taken up in the cells, washed with HBSS and then cultured in an RPMI medium containing the compound of Example 1-1 (10 μM) obtained in the present invention for 60 minutes, and after further washing with HBSS, the cells were peeled off and stored in HBSS at room temperature for 1.5 hours ((+) in FIG. 3A). The cells were cultured in an RPMI medium containing no L-[10B]BPA for 15 minutes, and after washing with HBSS, the cells were peeled off and stored in HBSS at room temperature for 1.5 hours ((No BPA Hot control) in FIG. 3A). These three cell samples were irradiated with neutron rays (5 MW for 4 minutes). After irradiation, in order to measure viable cells, the cells were plate-cultured and the number of colonies generated after 2 weeks was measured. The number of viable cells was evaluated as surviving fraction (%) (FIG. 3A).

NC1(C(=O)O)CCc2ccc(Oc3ccc4ccccc4c3)cc2C1 (centres unmarked) [Example 1-1, 2-carboxy-7-(naphthalene-2-yloxy)-1,2,3,4-tetrahydronaphthalene-2-aminium chloride]
IC50 [1]: ≤ 0.9 µM | BNCT-enhancing effect (surviving fraction after neutron irradiation) [2]: large BNCT-enhancing effect
